From US20240360114A1 (SIRONAX LTD., priority 2021, published 2024)
pEC50: −log10 of the molar value.

tested on: HT-1080 cells; test: HT-1080 cell viability assay (ferroptosis induced by RSL3, Cell Titer-Glo); format: cell-based; settings: Homo sapiens, HT-1080, 20 h, ferroptosis inducer RSL3, 20 hours, ferroptosis inhibitory activity, Table 2
In short: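 Cells seeded overnight, then co-treated with RSL3 and compound (3-fold, 10-point dilution, top 1.1 μM) for 20 hours. Viability by CellTiter-Glo luminescence, normalized to untreated controls; EC50 from sigmoidal non-linear regression.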

SMILES	pEC50
CC(C)(C)OC(=O)N[C@H]1CC[C@H](CNc2ccc(N3CC4CC(C3)O4)c(F)c2)CC1 [Compound 506, tert-butyl ((1r,4r)-4-(((4-(6-oxa-3-azabicyclo[3.1.1]heptan-3-yl)-3-fluorophenyl)amino)methyl)cyclohexyl) carbamate]	7.00 to 10.00
CC1(C)CCC(c2ccc(NC3CC(NC(=O)[C@H]4CNC(=O)N4)C3)cc2)CC1 (stereo partly drawn) [Compound 129, (R)—N-(3-((4-(4,4-dimethylcyclohexyl)phenyl)amino)cyclobutyl)-2-oxoimidazolidine-4-carboxamide]	6.00 to 7.00
CC(C)(C)c1ccc(NC2CC(N)C2)cc1 (stereo not shown) [Compound 123, N1-(4-(tert-butyl)phenyl)cyclobutane-1,3-diamine]	6.00 to 7.00
CC(C)C1CCN(c2ncc(NC3C4CC5CC3CC(C(N)=O)(C5)C4)cn2)CC1 (stereo not shown) [Compound 388, 4-((2-(4-isopropylpiperidin-1-yl)pyrimidin-5-yl)amino)adamantane-1-carboxamide]	7.00 to 10.00
CC(C)(C)c1ccc(NC2CCC(N)(C(N)=O)CC2)cc1 (stereo not shown) [Compound 212, 1-amino-4-((4-(tert-butyl)phenyl)amino)cyclohexane-1-carboxamide]	5.00 to 6.00
CC(C)C1CCN(c2ncc(NC3CCNCC3)cn2)CC1 [Compound 35, 2-(4-isopropylpiperidin-1-yl)-N-(piperidin-4-yl)pyrimidin-5-amine]	7.00 to 10.00
COC1(C(F)(F)F)CCN(c2ccc(NC3CC4(CC(N)C4)C3)c(C)n2)CC1 (stereo not shown) [Compound 498, N2-(6-(4-methoxy-4-(trifluoromethyl)piperidin-1-yl)-2-methylpyridin-3-yl)spiro[3.3]heptane-2,6-diamine]	7.00 to 10.00
CC1(C)CCC(c2ccc(NC3CNC(=O)C3)cc2)CC1 (stereo not shown) [Compound 141, 4-((4-(4,4-dimethylcyclohexyl)phenyl)amino)pyrrolidin-2-one]	6.00 to 7.00
CC1CN(c2ccc3cc(NC4CC5(CC(N)C5)C4)ncc3c2)CC(C)O1 (stereo not shown) [Compound 570, N2-(7-(2,6-dimethylmorpholino)isoquinolin-3-yl)spiro[3.3]heptane-2,6-diamine]	7.00 to 10.00
CC(C)(C)c1ccc(NC2CCc3nc(N)sc3C2)cc1 (stereo not shown) [Compound 204, 4-N-(4-(tert-butyl)phenyl)-4,5,6,7-tetrahydrobenzo[d]thiazole-2,6-diamine]	6.00 to 7.00
Cc1nc(N2CC[Si](C)(C)CC2)ccc1NC1CC2(CC(N)C2)C1 (stereo not shown) [Compound 556, N2-(6-(4,4-dimethyl-1,4-azasilinan-1-yl)-2-methylpyridin-3-yl)spiro[3.3]heptane-2,6-diamine]	7.00 to 10.00
CCOCCOC1CCN(c2ccc(NC3CC4(CC(N)C4)C3)c(C)c2)CC1 (stereo not shown) [Compound 470, N2-(4-(4-(2-ethoxyethoxy)piperidin-1-yl)-2-methylphenyl)spiro[3.3]heptane-2,6-diamine]	7.00 to 10.00
CCNC1C[C@@H]2CC(Nc3ccc(N4CCC(C(F)(F)F)CC4)cc3F)C[C@@H]2C1 (stereo partly drawn) [Compound 373, (3aR,6aS)-N2-ethyl-N5-(2-fluoro-4-(4-(trifluoromethyl)piperidin-1-yl)phenyl)octahydropentalene-2,5-diamine]	7.00 to 10.00
CC(C)(C)c1ccc(NCCc2cnc[nH]2)cc1 [Compound 177, N-(2-(1H-imidazol-5-yl)ethyl)-4-(tert-butyl)aniline]	5.00 to 6.00
Cc1nc(N2CCOCC2)ccc1NC1C2CC3CC1CC(N)(C3)C2 (stereo not shown) [Compound 517, N4-(2-methyl-6-morpholinopyridin-3-yl)adamantane-1,4-diamine]	6.00 to 7.00
COc1cc(NC[C@H]2CC[C@H](N)CC2)ccc1N1C[C@@H](C)O[C@H](C)C1 (stereo in doubt) [Compound 496, N-(((1r,4R)-4-aminocyclohexyl)methyl)-4-((2S,6R)-2,6-dimethylmorpholino)-3-methoxyaniline]	6.00 to 7.00
[2H]C1([2H])CC(N)CC([2H])([2H])C1([2H])Nc1ccc(C(C)(C)C)cc1 (stereo not shown) [Compound 347, N1-(4-(tert-butyl)phenyl)cyclohexane-1,2,2,6,6-d5-1,4-diamine]	7.00 to 10.00
CC1(C)CCC(C)(C)c2cc(NC[C@H]3CC[C@H](N)CC3)ccc21 [Compound 338, N-(((1r,4r)-4-aminocyclohexyl)methyl)-5,5,8,8-tetramethyl-5,6,7,8-tetrahydronaphthalen-2-amine]	7.00 to 10.00
NC1CC2(C1)CC(Nc1ccc(N3CCC(C(F)(F)F)CC3)nc1)C2 (stereo not shown) [Compound 397, N2-(6-(4-(trifluoromethyl)piperidin-1-yl)pyridin-3-yl)spiro[3.3]heptane-2,6-diamine]	7.00 to 10.00

Second part, the molecule after the results:

pEC50	SMILES
7.00 to 10.00	CC(CN1CCCC1)Nc1ccc(C2CCC(C)(C)CC2)cc1 (stereo not shown) [Compound 297, 4-(4,4-dimethylcyclohexyl)-N-(1-(pyrrolidin-1-yl)propan-2-yl)aniline]
7.00 to 10.00	O=C1NC[C@H](C(=O)NCC2CCC(Nc3ccc(N4CCC(C(F)(F)F)CC4)cc3)CC2)N1 (stereo partly drawn) [Compound 18, (R)-2-oxo-N-((4-((4-(4-(trifluoromethyl)piperidin-1-yl)phenyl)amino)cyclohexyl)methyl)imidaz olidine-4-carboxamide]
7.00 to 10.00	COC(=O)C1CCC(Nc2ccc(N3CCC(C(F)(F)F)CC3)cc2)CC1 (stereo not shown) [Compound 6A, methyl 4-((4-(4-(trifluoromethyl)piperidin-1-yl)phenyl)amino)cyclohexane-1-carboxylate]
7.00 to 10.00	CC1(N)CCC(Nc2ccc3c(c2)CCCC3)CC1 (stereo not shown) [Compound 119, 1-methyl-N4-(5,6,7,8-tetrahydronaphthalen-2-yl)cyclohexane-1,4-diamine]
7.00 to 10.00	CCCCCCOc1cc(NC2CCC(N)CC2)ccc1C(C)(C)C (stereo not shown) [Compound 271, N1-(4-(tert-butyl)-3-(hexyloxy)phenyl)cyclohexane-1,4-diamine]
7.00 to 10.00	NC(=O)C1CCC(Nc2ccc3cc(N4CCC(C(F)(F)F)CC4)ccc3c2)CC1 (stereo not shown) [Compound 563, 4-((6-(4-(trifluoromethyl)piperidin-1-yl)naphthalen-2-yl)amino)cyclohexane-1-carboxamide]
6.00 to 7.00	O=C1CC(C(=O)NC2CCC(Nc3ccc(C4CCCCC4)cc3)CC2)CN1 (stereo not shown) [Compound 110, N-(4-((4-cyclohexylphenyl)amino)cyclohexyl)-5-oxopyrrolidine-3-carboxamide]
7.00 to 10.00	CC1(N)CCC(Nc2ccc(N3CCC(C(F)(F)F)CC3)cc2)CC1 (stereo not shown) [Compound 51, 1-methyl-N4-(4-(4-(trifluoromethyl)piperidin-1-yl)phenyl)cyclohexane-1,4-diamine]
6.00 to 7.00	CCC(C)(C)c1ccc(NC2CCC(O)CC2)cc1 (stereo not shown) [Compound 298, 4-((4-(tert-pentyl)phenyl)amino)cyclohexan-1-ol]
7.00 to 10.00	CCC(C)(C)c1ccc(NC[C@H]2CC[C@H](N)CC2)cc1 [Compound 342, N-(((1r,4r)-4-aminocyclohexyl)methyl)-4-(tert-pentyl)aniline]
6.00 to 7.00	CC1CC(c2ccc(NC3CCC(N)CC3)cc2)CC(C)O1 (stereo not shown) [Compound 138, N1-(4-(2,6-dimethyltetrahydro-2H-pyran-4-yl)phenyl)cyclohexane-1,4-diamine]
7.00 to 10.00	N[C@H]1CC[C@H](CNc2ccc(C3CCN(CC(F)(F)F)CC3)cc2)CC1 [Compound 559, N-(((1r, 4r)-4-aminocyclohexyl)methyl)-4-(1-(2,2,2-trifluoroethyl)piperidin-4-yl)aniline]
7.00 to 10.00	CCN1CC(C(=O)NCC2CCC(Nc3ccc(N4CCC(C(F)(F)F)CC4)cc3)CC2)CC1=O (stereo not shown) [Compound 1, 1-ethyl-5-oxo-N-((4-((4-(4-(trifluoromethyl)piperidin-1-yl)phenyl)amino)cyclohexyl)methyl) pyr rolidine-3-carboxamide]
7.00 to 10.00	CN(C)CC1CCC(Nc2ccc(C(C)(C)C)cc2)CC1 (stereo not shown) [Compound 196, 4-(tert-butyl)-N-(4-((dimethylamino)methyl)cyclohexyl)aniline]
7.00 to 10.00	NC1CCC(Nc2cnc(N3CCC(C(F)(F)F)CC3)nc2)CC1 (stereo not shown) [Compound 42, N1-(2-(4-(trifluoromethyl)piperidin-1-yl)pyrimidin-5-yl)cyclohexane-1,4-diamine]
7.00 to 10.00	CCCCCCc1cc(NC2CCC(N)CC2)ccc1C(C)(C)C (stereo not shown) [Compound 253A, N1-(4-(tert-butyl)-3-hexylphenyl)cyclohexane-1,4-diamine]
6.00 to 7.00	NC1CCC(Nc2ccc(C3CC3)cc2)CC1 (stereo not shown) [Compound 181, N1-(4-cyclopropylphenyl)cyclohexane-1,4-diamine]
6.00 to 7.00	NC1CCC(Nc2ccc3c(c2)CCC3)CC1 (stereo not shown) [Compound 162, N1-(2,3-dihydro-1H-inden-5-yl)cyclohexane-1,4-diamine]
7.00 to 10.00	CN1CCC(Nc2ccc(N3CCC(C(F)(F)F)CC3)cc2)C1 (stereo not shown) [Compound 16, 1-methyl-N-(4-(4-(trifluoromethyl)piperidin-1-yl)phenyl)pyrrolidin-3-amine]

same assay, conditions: Homo sapiens, HT-1080, 20 h, ferroptosis inducer RSL3, 20 hours, ferroptosis inhibitory activity, Table 3

pEC50	SMILES
7.00 to 10.00	CCc1nc(N2CC(C)OC(C(F)(F)F)C2)ccc1NC1CC2(CC(N)C2)C1 (stereo not shown) [Compound 659, N2-(2-ethyl-6-(2-methyl-6-(trifluoromethyl)morpholino)pyridin-3-yl)spiro[3.3]heptane-2,6-diamine]
7.00 to 10.00	Cc1nc(N(C)CCNCC(F)(F)F)ccc1NC1CC2(CC(N)C2)C1 (stereo not shown) [Compound 616, N^5-(6-aminospiro [3.3]heptan-2-yl)-N^2,6-dimethyl-N2-(2-((2,2,2-trifluoroethyl)amino)ethyl) pyridine-2,5-diamine]

same assay, conditions: ferroptosis inducer RSL3, 20 hours, ferroptosis inhibitory activity, Table 2

pEC50	SMILES
6.00 to 7.00	NC1CCC(Nc2ccc(N3CCCCC3CO)cc2)CC1 (single isomer, unassigned) [Compound 417B, (1-(4-((4-aminocyclohexyl)amino)phenyl)piperidin-2-yl)methanol]
7.00 to 10.00	NC1CCC(Nc2ccc(N3CCCCC3CO)cc2)CC1 (single isomer, unassigned) [Compound 417A, (1-(4-((4-aminocyclohexyl)amino)phenyl)piperidin-2-yl)methanol]
7.00 to 10.00	CCC(C)c1ccc(NC2CCC(N)CC2)cc1 (single isomer, unassigned) [Compound 289A, 1-N-(4-(sec-butyl)phenyl)cyclohexane-1,4-diamine]
